In patent US8288552B2, “Dihydropyridone amidesas P2X7 modulators” (Roche Palo Alto LLC, priority 2008, dated 2012) one finds pKi data, which are given here for 13 compounds.

This experiment has as its target T1, P2X7 (UniProt Q99572).
T1 sequence (Q99572 1-595): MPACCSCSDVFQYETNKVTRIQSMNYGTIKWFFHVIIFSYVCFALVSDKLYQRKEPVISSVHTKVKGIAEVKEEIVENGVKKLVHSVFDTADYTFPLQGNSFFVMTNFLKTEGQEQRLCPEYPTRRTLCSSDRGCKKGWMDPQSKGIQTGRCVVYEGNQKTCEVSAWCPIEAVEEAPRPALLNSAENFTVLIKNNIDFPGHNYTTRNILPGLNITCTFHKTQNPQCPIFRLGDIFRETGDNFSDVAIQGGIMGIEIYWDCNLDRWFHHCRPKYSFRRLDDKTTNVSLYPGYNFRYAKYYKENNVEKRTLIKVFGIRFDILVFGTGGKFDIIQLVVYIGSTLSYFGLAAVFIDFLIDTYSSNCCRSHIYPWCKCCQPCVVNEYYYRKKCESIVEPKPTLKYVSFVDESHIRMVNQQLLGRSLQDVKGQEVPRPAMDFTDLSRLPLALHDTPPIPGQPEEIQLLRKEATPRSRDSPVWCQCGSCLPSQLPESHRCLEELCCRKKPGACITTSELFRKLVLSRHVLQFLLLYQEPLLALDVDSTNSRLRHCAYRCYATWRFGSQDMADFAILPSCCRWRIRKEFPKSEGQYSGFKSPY
Nature of the experiment: P2X7 pKi of Table 1. It is filed as cell-based. Put shortly:
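Human P2X7 in 1321N1 cells and rat P2X7 in HEK293 cells, loaded with fluo-3 for 1 hr at 37° C, then exposed to antagonist for 20 min at room temperature. BzATP agonist was used at 100 μM final (human) or 5 μM final (rat), with fluorescence read for 5 min. The response was normalized to maximal fluorescence evoked by 5 μM ionomycin.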
By pKi is commonly meant the Ki on a negative log10 scale, so that one unit is a factor of ten. Read a low pKi as a large Ki. For the compound `O=C1C[C@@H](c2ccc(F)cc2)C(C(=O)Nc2ccccc2C(F)(F)F)=CN1` [Compound 95, (S)-4-(4-Fluoro-phenyl)-6-oxo-1,4,5,6-tetrahydro-pyridine-3-carboxylic acid(2-trifluoromethyl-phenyl)-amide], the pKi stood at 6.26.

Regarding `Cc1ccc([C@@H](C)O)cc1NC(=O)C1=CNC(=O)C[C@H]1c1ccc(F)cc1` [Compound 89, (S)-4-(4-Fluoro-phenyl)-6-oxo-1,4,5,6-tetrahydro-pyridine-3-carboxylic acid[5-((R)-1-hydroxy-ethyl)-2-methyl-phenyl]-amide], the negative-log Ki (pKi) was determined as 7.443.

Turning to `Cc1cc(Cl)c(CN(CCO)CCO)cc1NC(=O)C1=CNC(=O)C[C@H]1c1ccc(F)cc1` [Compound 124, (S)-4-(4-Fluoro-phenyl)-6-oxo-1,4,5,6-tetrahydro-pyridine-3-carboxylic acid(5-{[bis-(2-hydroxy-ethyl)-amino]-methyl}-4-chloro-2-methyl-phenyl)-amide], the pKi came to 6.75.

Compound `Cc1cccc(NC(=O)C2=CNC(=O)CC2c2ccc(F)cc2)c1C` (stereo not shown) [Compound 37, 4-(4-Fluoro-phenyl)-6-oxo-1,4,5,6-tetrahydro-pyridine-3-carboxylic acid(2,3-dimethyl-phenyl)-amide] displayed a pKi of 7.12.

For `COc1cc(Br)c(NC(=O)C2=CNC(=O)C[C@@H]2c2ccc(F)cc2)cc1OC` [Compound 39, (R)-4-(4-Fluoro-phenyl)-6-oxo-1,4,5,6-tetrahydro-pyridine-3-carboxylic acid(2-bromo-4,5-dimethoxy-phenyl)-amide], the pKi was determined as 6.99. The pKi values of the last two compounds are within 0.2 log units of each other.

In the case of `Cc1cc(C)cc(NC(=O)C2=CNC(=O)CC2c2ccc(F)cc2)c1` (stereo not shown) [Compound 14, 4-(4-Fluoro-phenyl)-6-oxo-1,4,5,6-tetrahydro-pyridine-3-carboxylic acid(3,5-dimethyl-phenyl)-amide], the pKi is reported as 6.535.

`Cc1c(C#N)cccc1NC(=O)C1=CNC(=O)C[C@H]1c1ccc(F)cc1` [Compound 115, (S)-4-(4-Fluoro-phenyl)-6-oxo-1,4,5,6-tetrahydro-pyridine-3-carboxylic acid(3-cyano-2-methyl-phenyl)-amide] came in with a pKi of 5.815.

For `O=C1CC(c2cccc(F)c2)C(C(=O)Nc2cc3c(cc2Cl)OC(F)(F)O3)=CN1` (stereo not shown) [Compound 137, 4-(3-Fluoro-phenyl)-6-oxo-1,4,5,6-tetrahydro-pyridine-3-carboxylic acid(6-chloro-2,2-difluoro-benzo[1,3]dioxol-5-yl)-amide], the negative-log Ki (pKi) is 4.98.

The compound `COc1cc(Br)c(NC(=O)C2=CNC(=O)C[C@@H]2c2cccc(F)c2)cc1OC` [Compound 34, (R)-4-(3-Fluoro-phenyl)-6-oxo-1,4,5,6-tetrahydro-pyridine-3-carboxylic acid(2-bromo-4,5-dimethoxy-phenyl)-amide] had a pKi of 6.9783.

`COc1cc(Br)c(NC(=O)C2=CNC(=O)C[C@H]2c2ccc(F)cc2)cc1OC` [Compound 40, (S)-4-(4-Fluoro-phenyl)-6-oxo-1,4,5,6-tetrahydro-pyridine-3-carboxylic acid(2-bromo-4,5-dimethoxy-phenyl)-amide] had a negative logarithm of the Ki (pKi) of 7.895.

For `Cc1ccc(C(C)C)cc1NC(=O)C1=CNC(=O)C[C@H]1c1cccc(F)c1` [Compound 69, (S)-4-(3-Fluoro-phenyl)-6-oxo-1,4,5,6-tetrahydro-pyridine-3-carboxylic acid(5-isopropyl-2-methyl-phenyl)-amide], the pKi was 7.01.

With `Cc1c(CCO)cccc1NC(=O)C1=CNC(=O)C[C@H]1c1ccc(F)cc1` [Compound 100, (S)-4-(4-Fluoro-phenyl)-6-oxo-1,4,5,6-tetrahydro-pyridine-3-carboxylic acid[3-(2-hydroxy-ethyl)-2-methyl-phenyl]-amide], the pKi is 6.803.

As to `O=C1CC(c2ccccc2)C(C(=O)NC2CCc3ccccc32)=CN1` (stereo not shown) [Compound 136, 6-Oxo-4-phenyl-1,4,5,6-tetrahydro-pyridine-3-carboxylic acid indan-1-ylamide], the pKi was 5.412.
